The record followed here is ChEMBL document CHEMBL1201862, “PubChem BioAssay data set” (2004).

Some test systems named below: COLO 205; DU-145; EKVX; HCT-15; HT-29; KM12; MDA-MB-231; NCI/ADR-RES; RPMI-8226; SF-295; SN12C; T47D; UO-31; A498.
What all share (assay): NCI-60 cell line screen, 48 h

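Assay format: 96-well plates, 48-hour exposure. GI50 is the concentration that inhibits growth by half.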 The source made the active and inactive calls. Cut-off read from the data, not from the text of the source: active = GI50 up to about 1.1 µM and inactive = higher.

As for `CCOC(=O)CON=c1c2ccccc2ccc2ccccc12`, the GI50 in the experiment on COLO 205 is > 100 µM (inactive); with DU-145 it was > 100 µM (inactive); in the experiment on EKVX, > 100 µM (inactive); with HCT-15, above 100 µM; with HT-29, > 100 µM (inactive); in the experiment with KM12 it was > 100 µM (inactive). Moreover, the GI50 in the experiment on MDA-MB-231, with NCI/ADR-RES, in the experiment with RPMI-8226, in the experiment on SF-295, in the experiment with SN12C and with T47D was > 100 µM (inactive) each time. The GI50 in the experiment with UO-31 was > 100 µM (inactive).

As for `O=c1[nH]c(=O)n(C2CC(O)C(CO)O2)c2nc3ccc4ccccc4c3nc12` (stereo not drawn), the GI50 was > 100 µM (inactive) with A498; 64.9 µM (inactive) in the experiment on COLO 205; > 100 µM (inactive) in the experiment on DU-145; 72.4 µM (inactive) with EKVX; 62.2 µM in the experiment with HCT-15; > 100 µM (inactive) in the experiment with KM12. In addition, the GI50 in the experiment on MDA-MB-231 was 26.9 µM (inactive); in the experiment with NCI/ADR-RES, > 100 µM (inactive); in the experiment on RPMI-8226 it was 22.8 µM (inactive); with SF-295, 53.6 µM (inactive); in the experiment with SN12C, 51.2 µM (inactive); in the experiment on T47D it was 93.8 µM (inactive). Also, the GI50 in the experiment with UO-31 is > 100 µM (inactive).

As for `O=C1CCSCCC(=O)Nc2ccccc2N1`, the GI50 is > 100 µM (inactive) with A498; > 100 µM (inactive) in the experiment with COLO 205; > 100 µM (inactive) with DU-145; > 100 µM (inactive) with EKVX; above 100 µM in the experiment on HCT-15; > 100 µM (inactive) with HT-29. The GI50 with KM12, in the experiment on MDA-MB-231, in the experiment with NCI/ADR-RES, in the experiment on RPMI-8226, in the experiment with SF-295 and in the experiment on SN12C was > 100 µM (inactive) in each case. In addition, the GI50 in the experiment with T47D and in the experiment on UO-31 was > 100 µM (inactive) throughout.

In the case of `CCOC(=O)CCC(NC(=O)c1ccc(OCc2nc3cc(C(F)(F)F)ccc3nc2-c2ccccc2)cc1)C(=O)OCC` (stereo not drawn), the GI50 with A498 was > 100 µM (inactive); in the experiment with COLO 205 it was 17.9 µM (inactive); in the experiment with DU-145 it was 86.1 µM (inactive); in the experiment with EKVX, > 100 µM (inactive); in the experiment with HCT-15, 68.2 µM; with HT-29 it was > 100 µM (inactive). For the same compound, the GI50 in the experiment on KM12 was 29 µM (inactive); with MDA-MB-231, > 100 µM (inactive); in the experiment with NCI/ADR-RES, 54 µM (inactive); in the experiment on RPMI-8226 it was 43.9 µM (inactive); with SF-295 it was 40.6 µM (inactive); in the experiment on SN12C, > 100 µM (inactive). Further, the GI50 was 20.4 µM (inactive) with T47D and 37.9 µM (inactive) in the experiment on UO-31.

For `NC(=O)C(=CN1CC(=O)NC1=S)C(N)=O`, the GI50 in the experiment on A498 was > 100 µM (inactive); with COLO 205 it was > 100 µM (inactive); with DU-145, > 100 µM (inactive); in the experiment on EKVX, > 100 µM (inactive); in the experiment with HCT-15 it was above 100 µM; in the experiment with HT-29, > 100 µM (inactive). For the same compound, the GI50 in the experiment on KM12, with MDA-MB-231, in the experiment on NCI/ADR-RES, in the experiment with SF-295, in the experiment on SN12C and in the experiment on T47D was > 100 µM (inactive) in each case. For the same compound, in the experiment with UO-31, the GI50 was > 100 µM (inactive).

For the compound `CC(C)/C(Cl)=N\OC(=O)NNc1ccccc1`, the GI50 in the experiment with A498 is 75.2 µM (inactive); in the experiment with COLO 205, 0.119 µM (active); in the experiment on DU-145, > 100 µM (inactive); in the experiment with EKVX, 15.3 µM (inactive); with HCT-15, 21.1 µM; in the experiment on HT-29, 0.397 µM (active). For the same compound, the GI50 in the experiment on KM12 is 1.55 µM (inactive); in the experiment on MDA-MB-231, 41.9 µM (inactive); in the experiment with NCI/ADR-RES, 28.1 µM (inactive); with RPMI-8226, < 0.0247 µM (active); in the experiment on SN12C, > 48.1 µM (inactive); with T47D, 2.35 µM (inactive). Moreover, the GI50 with UO-31 was 0.0178 µM (active).

`CCCCCc1c2nc(c(CCCCC)c3ccc([nH]3)c(CCCCC)c3nc(c(CCCCC)c4ccc1[nH]4)C=C3)C=C2`: the GI50 in the experiment on COLO 205 was > 100 µM (inactive); with DU-145, > 100 µM (inactive); with EKVX, > 100 µM (inactive); with HCT-15 it was above 100 µM; in the experiment with HT-29 it was > 100 µM (inactive); in the experiment with KM12 it was > 100 µM (inactive). For the same compound, the GI50 in the experiment on MDA-MB-231, in the experiment on NCI/ADR-RES, in the experiment with RPMI-8226, in the experiment on SF-295, in the experiment with SN12C and in the experiment with T47D was > 100 µM (inactive) throughout. The GI50 with UO-31 was > 100 µM (inactive).

For `COc1cccc2c1OC1(C=C2)Oc2ccccc2C(=O)N1C` (stereo not drawn), the GI50 was 19.6 µM (inactive) in the experiment on A498; 31.7 µM (inactive) with COLO 205; 34 µM (inactive) in the experiment on DU-145; 18.4 µM (inactive) in the experiment on EKVX; 32.5 µM in the experiment with HCT-15; 28.5 µM (inactive) in the experiment on HT-29. Moreover, the GI50 in the experiment on KM12 is 19.1 µM (inactive); in the experiment with MDA-MB-231, 27.2 µM (inactive); in the experiment with NCI/ADR-RES it was 3.91 µM (inactive); in the experiment on RPMI-8226, 27.9 µM (inactive); in the experiment on SF-295, 22.8 µM (inactive); with SN12C, 22.5 µM (inactive). Also, the results for the GI50 in the experiment with T47D and in the experiment with UO-31 were 31.9 µM (inactive) and 19.8 µM (inactive), respectively.

In the case of `OCCOCn1cc(Cn2ncc3c(SCc4ccccc4)ncnc32)nn1`, the GI50 was 34.4 µM (inactive) in the experiment with A498; 31.3 µM (inactive) in the experiment on COLO 205; 43.7 µM (inactive) with DU-145; 38 µM (inactive) in the experiment with EKVX; 37.4 µM in the experiment on HCT-15; 38.2 µM (inactive) with HT-29. Besides, the GI50 is 32.3 µM (inactive) with KM12; 88.1 µM (inactive) with MDA-MB-231; 31.8 µM (inactive) with NCI/ADR-RES; 45.1 µM (inactive) in the experiment on SF-295; 64.9 µM (inactive) in the experiment with SN12C; 27.5 µM (inactive) in the experiment on T47D. Also, in the experiment with UO-31, the GI50 is 61.8 µM (inactive).

As to `Cc1c2oc(=O)c(C#N)cc2c2ccccn12`, the GI50 in the experiment with A498 was > 100 µM (inactive); in the experiment with COLO 205, > 100 µM (inactive); with DU-145 it was > 100 µM (inactive); with EKVX, > 100 µM (inactive); with HCT-15 it was 89.9 µM; in the experiment on HT-29, > 100 µM (inactive). For the same compound, the GI50 is 27.6 µM (inactive) with KM12; > 100 µM (inactive) in the experiment with MDA-MB-231; > 100 µM (inactive) with NCI/ADR-RES; > 100 µM (inactive) in the experiment on RPMI-8226; 20.2 µM (inactive) in the experiment on SF-295; > 100 µM (inactive) with T47D. Further, the GI50 with UO-31 was 60.7 µM (inactive).

Turning to `CC1=CC(=O)CC(C)(C)C1/C=C/C(C)=C/C=C/C(C)=C/C=C/C=C(C)/C=C/C=C(C)/C=C/C1=C(C)CC(O)CC1(C)C` (stereo not drawn), the GI50 with A498 was 94.2 µM (inactive); in the experiment with DU-145, 24.4 µM (inactive); with EKVX it was 57.3 µM (inactive); in the experiment with HCT-15 it was 24.1 µM; with HT-29 it was 30.8 µM (inactive); in the experiment on KM12 it was 31.8 µM (inactive). Moreover, the GI50 in the experiment with MDA-MB-231 is 64.3 µM (inactive); in the experiment with NCI/ADR-RES it was 51.5 µM (inactive); with RPMI-8226, 9.31 µM (inactive); with SF-295 it was 60.8 µM (inactive); with T47D, 30.9 µM (inactive); in the experiment on UO-31 it was 44.8 µM (inactive).

`COC(=O)C1C(OC(=O)C(Cl)(c2ccccc2)c2ccccc2)CC2CCC1N2C` (stereo not drawn): the GI50 is > 100 µM (inactive) in the experiment with COLO 205; > 100 µM (inactive) in the experiment on DU-145; > 100 µM (inactive) in the experiment on EKVX; above 100 µM in the experiment with HCT-15; > 100 µM (inactive) in the experiment with HT-29; > 100 µM (inactive) in the experiment with KM12. The GI50 in the experiment with MDA-MB-231, in the experiment on NCI/ADR-RES, with RPMI-8226, in the experiment with SF-295, with SN12C and in the experiment with T47D was > 100 µM (inactive) in each case. Besides, the GI50 in the experiment on UO-31 is > 100 µM (inactive).

`O=C(Nn1c(-c2ccccc2)nc2ccccc2c1=O)c1ccc(Cl)cc1`: the GI50 was 45.7 µM (inactive) in the experiment with A498; > 100 µM (inactive) with DU-145; > 100 µM (inactive) with EKVX; above 100 µM with HCT-15; > 100 µM (inactive) in the experiment on HT-29; > 100 µM (inactive) with KM12. For the same compound, the GI50 is > 100 µM (inactive) in the experiment with MDA-MB-231; > 100 µM (inactive) with NCI/ADR-RES; 76 µM (inactive) with RPMI-8226; > 100 µM (inactive) in the experiment with SF-295; > 100 µM (inactive) in the experiment on SN12C; 85.5 µM (inactive) in the experiment on T47D. Besides, in the experiment on UO-31, the GI50 is 65.6 µM (inactive).

As to `O=C1Cc2c([nH]c3c(Br)cccc23)-c2ccccc2N1`, the GI50 was > 100 µM (inactive) in the experiment with A498; 27.8 µM (inactive) in the experiment with COLO 205; > 100 µM (inactive) in the experiment on DU-145; > 100 µM (inactive) in the experiment on EKVX; 25.1 µM with HCT-15; 59.8 µM (inactive) in the experiment with HT-29. Moreover, the GI50 in the experiment with KM12 was 60 µM (inactive); with MDA-MB-231, 33.9 µM (inactive); in the experiment with NCI/ADR-RES it was 40.3 µM (inactive); in the experiment on RPMI-8226, 32.5 µM (inactive); in the experiment on SF-295, > 100 µM (inactive); with SN12C, 57.9 µM (inactive). The GI50 with T47D is > 100 µM (inactive); in the experiment with UO-31 it was 37.9 µM (inactive).

As to `O=C(C(=O)N1CCc2ccccc21)c1c[nH]c2ccccc12`, the GI50 was > 10 µM (inactive) in the experiment with COLO 205; > 10 µM (inactive) in the experiment with DU-145; > 10 µM (inactive) with EKVX; above 10 µM in the experiment with HCT-15; > 10 µM (inactive) with HT-29; > 10 µM (inactive) in the experiment on KM12. Further, the GI50 in the experiment with MDA-MB-231, in the experiment with NCI/ADR-RES, in the experiment with RPMI-8226, in the experiment with SF-295, in the experiment on SN12C and in the experiment on T47D was > 10 µM (inactive) throughout. For the same compound, the GI50 in the experiment with UO-31 is > 10 µM (inactive).
